# Assay results: paper PMC6078345, “Location and functions of Inebriated in the Drosophila eye” (Biology Open, 2018)
# Biological target: T1, Ine-P1 (Inebriated long isoform; Ine-P1::GFP, Ine-P1-EGFP) (Drosophila melanogaster, UniProt Q9VR07)
# T1 construct: full-length long isoform, GFP/EGFP fusion, cRNA in Xenopus laevis oocytes; 943 aa
# T1 sequence (Q9VR07 1-943): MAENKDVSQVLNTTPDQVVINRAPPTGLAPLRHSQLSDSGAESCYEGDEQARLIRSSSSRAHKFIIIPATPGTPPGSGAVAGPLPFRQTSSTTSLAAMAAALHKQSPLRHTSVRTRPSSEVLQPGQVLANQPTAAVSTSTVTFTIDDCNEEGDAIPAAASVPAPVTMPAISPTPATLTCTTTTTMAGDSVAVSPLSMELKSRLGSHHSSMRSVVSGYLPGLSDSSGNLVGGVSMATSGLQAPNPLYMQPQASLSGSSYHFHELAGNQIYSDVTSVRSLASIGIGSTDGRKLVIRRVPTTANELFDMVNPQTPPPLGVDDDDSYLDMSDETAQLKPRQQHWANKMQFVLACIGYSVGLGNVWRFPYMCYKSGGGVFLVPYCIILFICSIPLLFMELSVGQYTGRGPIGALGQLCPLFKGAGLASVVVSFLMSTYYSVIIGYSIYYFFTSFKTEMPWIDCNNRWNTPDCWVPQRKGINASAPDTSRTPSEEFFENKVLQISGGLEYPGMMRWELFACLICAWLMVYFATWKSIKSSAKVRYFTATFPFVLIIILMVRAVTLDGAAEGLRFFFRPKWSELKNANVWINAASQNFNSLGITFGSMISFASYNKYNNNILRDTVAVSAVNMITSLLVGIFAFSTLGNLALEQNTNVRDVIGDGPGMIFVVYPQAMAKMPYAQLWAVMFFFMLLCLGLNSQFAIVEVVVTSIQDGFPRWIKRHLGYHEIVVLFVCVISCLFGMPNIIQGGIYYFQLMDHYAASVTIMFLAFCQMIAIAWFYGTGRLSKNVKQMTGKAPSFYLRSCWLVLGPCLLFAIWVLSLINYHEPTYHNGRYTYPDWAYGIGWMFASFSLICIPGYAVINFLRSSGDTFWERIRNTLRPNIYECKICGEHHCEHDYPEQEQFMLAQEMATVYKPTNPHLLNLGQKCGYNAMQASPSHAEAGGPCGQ
# Assay: voltage-clamp current in Xenopus oocytes
# Assay type: cell-based
# Details: normal frog Ringer, -100 mV; dose-dependent current, 7 to 100 mM; few oocytes; transport only suggested
structure (smiles),measurement,value
NCC(=O)O [glycine],voltage-clamp current in Xenopus oocytes,glycine on Ine-P1-EGFP transfected oocytes revealed an obvious dose-dependent signal
